The text below walks through data of patent US20090234023A1, “SUBSTITUTED HYDROXYACETOPHENONE DERIVATIVES” (Riemser Arzneimittel AG, priority 2004, published 2009).

One may read the MIC as the lowest concentration found to suppress growth. As usually defined, the melting point is the temperature of the solid-liquid transition.

One data set relates to B. subtilis. In words: Antimicrobial test (MIC), microtitre plates, TTC stain. Type of data set: cell-based. To be noted: Bacillus subtilis, 48 h, 36° C. Here is the method:
(§1) The inoculum for the tests was prepared by diluting the microorganisms in 0.85% NaCl, the dilution was set to level 0.5 according to McFarland and checked at 580 nm in the spectrophotometer. The cell suspensions were diluted to 10^4 UFC/ml for the application in the tests. The MIC tests were carried out according to the instructions of J. N. P. Eloff (Planta Medica Vol. 64, pp. 711-713, 1998)) in microtitre plates with 96 wells. […] The inoculum (100 μl) was placed in all wells and the plates were incubated for 48 h at a temperature of 36° C. The antimicrobial activity was detected by adding 20 μl of a 0.5% aqueous solution of TTC (tetrazolium chloride, Merck) per well. The minimal inhibition concentration (MIC) was defined as the lowest concentration of the compound that inhibited visible growth (indicated by TTC stain).

The test system of a further data set is Escherichia coli. The data set is described as above. It counts as cell-based. The conditions noted are these: 48 h, 36° C. On the procedure: as §1
A further data set deals with Rhodococcus equi. The data set is described as above. Type of data set: cell-based. To be noted: Rhodococcus (subgen. Prescottella) equi, 48 h, 36° C. On the procedure:
as §1

Another data set has as its system Micrococcus luteus. The data set is described as above. Type of data set: cell-based. The conditions noted are these: 48 h, 36° C. Here is the method: as §1
The subject of a further data set is Salmonella choterasuis. The data set is described as above. Type of data set: cell-based. To be noted: Salmonella choterasuis (Tables 3, 4: Salmonella), 48 h, 36° C. On the procedure: as §1
In a further data set the test system is Staphylococcus aureus. The data set is described as above. Type of data set: cell-based. To be noted: 48 h, 36° C. Here is the method: as §1
The next data set relates to S. epidermides. Described as above. Type of data set: cell-based. The conditions noted are these: 48 h. On the procedure:
as §1

A further data set concerns Candida albicans. The description is as above. The conditions noted are these: 48 h, 36° C. It counts as cell-based. On the procedure:
as §1

For a further data set, the system named is E. faecium. The data set is described as above. It counts as cell-based. The conditions noted are these: Enterococcus faecium, 48 h, 36° C. On the procedure:
as §1

The subject of the next data set is S. falcium. Described as above. Type of data set: cell-based. The conditions noted are these: 48 h, 36° C. On the procedure:
as §1

Data set [1] deals with human cancer cell lines NCI-460, MCF-7, NCI-ADR, UACC-62, K-562, HT-29, 786-0, OVCAR-3, PC-3. In words: SRB test, all tested human cancer cell lines (FIGS. 1-6).
Method: (§2) The tests were carried out with the following human cancer cell lines:
(§3) The cells were cultivated in 25 ml cell culture flasks (Nunc) with 5 ml RPMI 1640 (Gibco BRL, Life Technologies) with 5% of foetal bovine serum.
(§4) The adhering cells were trypsinised (0.5 ml trypsin, Nuticell Nutrientes Cellulares). The trypsin was then inactivated by adding 5 ml 5% serum in RPMI 1640. A single cell suspension was prepared by pipetting carefully, the cells were counted, dilutions with an appropriate cell density, varying according to the cell line, were prepared and 100 μl/well were seeded in 96-well microtitre plates. The microtitre plates were pre-incubated for 24 hours at 37° C. to stabilise the cultures. The cells were incubated for 48 hours at 37° C. and 5% CO2 with 100 μl of the dilutions of the test substances (0.25; 2.5; 25 and 250 μg/ml, in three-fold). Doxirubicin (Sigma Chemical Co.) and tamoxifen (Sigma Chemical Co.) served as positive controls.
(§5) The sulforhodamine B (SRB) test for the antiproliferative activity was carried out according to the specifications of Skehan et al. (Journal of National Cancer Institute Vol. 82, pp. 1107-1118, 1990). The cells were fixed for one hour at 4° C. by protein precipitation with 50% trichloroacetic acid (TCA, Sigma Chemicals Co.) (50 μl/well, final concentration 10%)). The supernatant was discarded and the plates were washed with tap water five times. The cells were dyed for 30 minutes with 0.4% SRB in 1% acetic acid (50 μl/well) and subsequently washed four times with 1% acetic acid in order to remove the non-bound dye. The plates were dried and the bound dye was solubilised with 150 μl/well 10 mM Trizma buffer (Sigma Chemicals Co.). The optical density was determined with an automated plate reader (Molecular Devices Max Microplate Reader) at 540 nm. All determinations were conducted as threefold determination. The optical density was calculated with the Excel® program (Microsoft Office Package).
For the next data set, the system named is E. falcium. In words: Antimicrobial test (MIC), microtitre plates, TTC stain. Type of data set: cell-based. The conditions noted are these: 48 h, 36° C. On the procedure: as §1
The subject of data set [2] is skin cancer (melanoma) UACC-62. To be noted: for ED50 (effective dosage which killed 50% of the human cancer cells): UACC62, 48 hours incubation.
Method: as §2, §3, §4, §5
For another data set, the system named is Lung NCI-460. To be noted: for ED50 (effective dosage which killed 50% of the human cancer cells): NCI460, 48 hours incubation; for cytocidal activity: NCI-460 (lung cancer cell line).
For a further data set, the system named is mamma (breast) MCF-7. The conditions noted are these: MCF7, 48 hours incubation.
Another data set deals with WI38 (fibroblasts). Briefly: Comparison test on non-pathogenic line. The conditions noted are these: WI38, non-pathogenic line for comparison.

Converted amounts (≈) assume the structure as drawn. Like-named read-outs stand apart in the source and are kept apart here.

Method for Lung NCI-460: as §2, §3, §4, §5
Method for mamma (breast) MCF-7: as §2, §3, §4
The sulforhodamine B (SRB) test for the antiproliferative activity was carried out according to the specifications of Skehan et al. (Journal of National Cancer Institute Vol. 82, pp. 1107-1118, 1990). […] The optical density was determined with an automated plate reader (Molecular Devices Max Microplate Reader) at 540 nm. […] The optical density was calculated with the Excel® program (Microsoft Office Package).

As to `CC(=O)c1ccc(OCC=C(C)C)cc1OCC=C(C)C` [2,4O, 1-[2,4-bis(3-methylbut-2-enyloxy)phenyl]ethanone], the MIC against B. subtilis, in the data set with Escherichia coli, in the data set with Rhodococcus equi, against Micrococcus luteus, with Salmonella choterasuis and in the data set with Staphylococcus aureus was 500 to 1000 µg/mL (≈ 1730 to 3470 µM) in each case. Also, the MIC in the data set with S. epidermides, in the data set on Candida albicans, in the data set on E. faecium and in the data set with S. falcium was 500 to 1000 µg/mL (≈ 1730 to 3470 µM) in each case. In addition, in [1] (against all tested cell lines), the “concentration at which cytocidal activity begins” value was determined as 250 µg/mL. Moreover, the “concentration at which cytostatic activity begins” value in data set [1] (against all tested cell lines) turned out to be 25 µg/mL.
For `O=C(N[C@H](CO)[C@H](O)c1ccc([N+](=O)[O-])cc1)C(Cl)Cl` [Chloramphenicol, reference compound], the minimal inhibitory concentration (MIC) with B. subtilis is 20 µg/mL (≈ 61.9 µM); in the data set on Escherichia coli it was 40 µg/mL (≈ 124 µM); in the data set on Rhodococcus equi, 40 µg/mL (≈ 124 µM); with Micrococcus luteus, 50 µg/mL (≈ 155 µM); in the data set on Salmonella choterasuis, 60 µg/mL (≈ 186 µM); in the data set with Staphylococcus aureus it was 20 µg/mL (≈ 61.9 µM). Also, the MIC came out at 40 µg/mL (≈ 124 µM) with S. epidermides (S. epidermides, 36° C., read-out: MIC); 120 µg/mL (≈ 371 µM) with E. faecium; 120 µg/mL (≈ 371 µM) against E. falcium; 120 µg/mL (≈ 371 µM) against S. falcium.
In the case of `CC(=O)c1ccccc1OCC=C(C)C` [Compound L1, 1-[2-(3-methylbut-2-enyloxy)phenyl]ethanone], the MIC was 500 to 1000 µg/mL (≈ 2450 to 4900 µM) in the data set on B. subtilis; > 1000 µg/mL in the data set on Escherichia coli; > 1000 µg/mL in the data set with Rhodococcus equi; 250 to 500 µg/mL (≈ 1220 to 2450 µM) with Micrococcus luteus; 250 µg/mL (≈ 1220 µM) in the data set with Salmonella choterasuis; 500 µg/mL (≈ 2450 µM) in the data set with Staphylococcus aureus. Also, the MIC against Candida albicans was 60 µg/mL (≈ 294 µM); against E. falcium, 250 µg/mL (≈ 1220 µM). Moreover, the “ED50 (effective dosage which killed 50% of the human cancer cells)” value in data set [2] turned out to be 45.0 µg/mL; with Lung NCI-460 it was 25.0 µg/mL; in the data set on mamma (breast) MCF-7, 25.0 µg/mL. Also, the cytocidal activity result (in data set [2] (UACC-62); in the data set on Lung NCI-460) was “cytocidal activity” in each case. For the same molecule, in data set [1] (against all tested cell lines), the “cytostatic activity (inhibition of cell growth)” value was “cytostatic activity”.
For the molecule `CC(=O)c1cc(CC=C(C)C)ccc1O` [Compound L2], the MIC is 500 to 1000 µg/mL (≈ 2450 to 4900 µM) against B. subtilis; 50 µg/mL (≈ 245 µM) against Escherichia coli; > 1000 µg/mL against Rhodococcus equi; 500 to 1000 µg/mL (≈ 2450 to 4900 µM) in the data set on Micrococcus luteus; 500 to 1000 µg/mL (≈ 2450 to 4900 µM) in the data set with Salmonella choterasuis; > 1000 µg/mL with Staphylococcus aureus. The MIC against Candida albicans was 50 µg/mL (≈ 245 µM); in the data set with E. falcium, 500 to 1000 µg/mL (≈ 2450 to 4900 µM). Moreover, the “ED50 (effective dosage which killed 50% of the human cancer cells)” value amounted to 4.2 µg/mL in data set [2], 9.0 µg/mL in the data set on Lung NCI-460 and 6.0 µg/mL with mamma (breast) MCF-7. The activity against fibroblasts entry is reported as “not active against fibroblasts” with WI38 (fibroblasts) and “without damaging the fibroblasts” in the data set on WI38 (fibroblasts) (listed as 1-[2-Hydroxy-5-(3-methylbut-2-enyl)ethanone). In addition, the “activity on all cell lines” value in [1] (at concentrations ranging between 0.5 and 250 μg/ml) is on record as “very strong activity”.
In the case of `CC(=O)c1cc(CC=C(C)C)ccc1OCC=C(C)C` [Compound L3, 1-[5-(3-methylbut-2-enyl)-2-(3-methylbut-2-enyloxy)phenyl]-ethanone], the minimum inhibitory concentration (MIC) was > 1000 µg/mL in the data set with B. subtilis; > 1000 µg/mL in the data set on Escherichia coli; > 1000 µg/mL in the data set on Rhodococcus equi; 500 to 1000 µg/mL (≈ 1840 to 3670 µM) against Micrococcus luteus; > 1500 µg/mL in the data set with Salmonella choterasuis; > 1000 µg/mL against Staphylococcus aureus. Besides, the MIC against Candida albicans was 900 µg/mL (≈ 3300 µM); in the data set with E. falcium it was 500 to 1000 µg/mL (≈ 1840 to 3670 µM).
Take `C=CC(C)(C)c1cc(CC=C(C)C)cc(C(C)=O)c1O` [LMK7, 1-[3-(1,1-dimethylallyl)-2-hydroxy-5-(3-methylbut-2-enyl)phenyl]-ethanone]: the cytocidal activity entry in the data set on Lung NCI-460 is reported as “did not, however, exhibit any cytocidal activity”. In data set [1] (against all tested cell lines), the “concentration at which cytostatic activity begins” value came out at 25 µg/mL.
Molecule `CC(=O)c1ccc(OCC=C(C)C)cc1` [LP1, 1-[4-(3-methylbut-2-enyloxy)phenyl]ethanone] returned a melting point of 47 °C. For the same molecule, the MIC against B. subtilis was > 1500 µg/mL. In the data set on Escherichia coli, the MIC is > 1500 µg/mL. Also, the MIC against Rhodococcus equi is > 1500 µg/mL. For the same molecule, the MIC against Micrococcus luteus is > 1500 µg/mL. The MIC against Salmonella choterasuis was in the range of 120 to 250 µg/mL (≈ 587 to 1220 µM). Moreover, the minimum inhibitory concentration (MIC) against Staphylococcus aureus was > 1500 µg/mL. In the data set with S. epidermides, this molecule gave an MIC of 60 to 120 µg/mL (≈ 294 to 587 µM). In the data set with Candida albicans, the MIC is > 1500 µg/mL. Besides, the MIC with E. faecium was > 1500 µg/mL. The MIC with S. falcium was > 1500 µg/mL. For the same molecule, in [1] (against all tested cell lines), the “concentration at which cytocidal activity begins” value turned out to be 250 µg/mL and the “concentration at which cytostatic activity begins” value amounted to 25 µg/mL.
